Data published in PubChem BioAssay (NCI).
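Five compound concentrations were applied to cells in 96-well plates for 48 hours; endpoints were derived by simple linear interpolation of the resulting dose-response curve. At the TGI there is no net growth.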 Where a SMILES comes first, the peptide text is derived from it. The star is where a group is joined. Fmoc = O=C(OCC1c2ccccc2-c2ccccc21)*; Boc = CC(C)(C)OC(=O)*

Experiments:
Test in all cases: growth of human tumour cells (NCI), 48 h
[1] = system: A498 renal
[2] = system: M14 melanoma
[3] = system: MALME-3M melanoma
[4] = system: MCF7 breast
[5] = system: NCI-H522 lung
[6] = system: OVCAR-4 ovarian
[7] = system: SF-295 CNS
[8] = system: UACC-257 melanoma
[9] = system: UACC-62 melanoma
[10] = system: TK-10 renal

| SMILES | TGI [1] [µM] | TGI [2] [µM] | TGI [3] [µM] | TGI [4] [µM] | TGI [5] [µM] | TGI [6] [µM] | TGI [7] [µM] | TGI [8] [µM] | TGI [9] [µM] | TGI [10] [µM] |
| --- | --- | --- | --- | --- | --- | --- | --- | --- | --- | --- |
| CC1(CCCO)CCCCCCCCCC(C)(CCCO)C1=O (stereo not drawn) | > 100 | > 100 | > 100 | > 100 | > 100 | > 100 | > 100 | > 100 | > 100 |  |
| CCOc1ccc(/C=N/[N+](C)(C)C)cc1OCC |  | > 10 | > 10 | > 10 | > 10 | > 10 | > 10 | > 10 | > 10 | > 10 |
| NC1CC2NC3CCCCC3NC2CC1N (stereo not drawn) | 79.4 | > 100 | > 100 | > 100 | 39.9 |  | > 100 | > 100 | > 100 | > 100 |
| O=C1/C(=C/c2cccc(Br)c2)CSC/C1=C\c1cccc(Br)c1 |  | 6.14 | 4.43 | 20.5 | 4.14 | 13.1 | 5.14 | 5.9 | 3.14 | 16.8 |
| COc1cc(COC(=O)N(CC(=O)O)c2ccccc2)c([N+](=O)[O-])cc1OC | > 100 | > 100 | > 100 | > 100 |  |  | > 100 | > 100 | > 100 | > 100 |
| CSCCCNC(=O)c1csc(-c2csc(C(CNC(=O)OC(C)(C)C)CNC(=O)OC(C)(C)C)n2)n1 | > 100 | > 100 |  | > 100 | 94.5 | > 100 | > 100 | > 100 | 40.4 | > 100 |
| CC(C)(C)OC(=O)NCCCCC(NC(=O)OCC1c2ccccc2-c2ccccc21)C(=O)N1CCCC1C(=O)NCC(N)=O (stereo not drawn) (Fmoc-Lys(Boc)-Pro-Gly-NH2; configuration not given here) |  | > 100 | 34.5 | > 100 |  | 44.6 | > 100 | > 100 | > 100 | > 100 |
| Cc1ccc(O)c(-c2cc(-c3cccc(Cl)c3)c(C#N)c(N)n2)c1 |  | 46.1 | 58.1 | 42.7 | 30 | 41.3 | 32.6 |  | 35.9 | 44.6 |
| O=C(O)c1cnc2[nH]ccn2c1=O | > 100 | > 100 | > 100 | > 100 |  | > 100 | > 100 | > 100 | > 100 | > 100 |
| O=c1[nH]c(Nc2cc(Cl)cc(Cl)c2)nc2nc[nH]c12 |  | > 75 | > 75 | > 75 |  | > 75 | > 75 | > 75 | > 75 | > 75 |
| CCCCCCOP(=O)(OCCCCCC)C(NC(=O)OCC)(C(F)(F)F)C(F)(F)F | > 100 | > 100 | > 100 | > 100 | 52.6 |  | > 100 |  | > 100 | > 100 |
| O=C1CCCC/C1=C\c1ccc(Br)cc1 |  | 26.1 | 21.5 | 7.4 | 31.1 | 46.7 | 49.7 | 70.3 | 19.6 | 30.9 |
